Drawing on ChEMBL document CHEMBL5727027, “Compounds useful as CCR9 modulators” (2018), this text covers Ki for one molecule.

Each structure is given as a SMILES string.

The target in this assay is T1, C-C chemokine receptor type 9 (Homo sapiens, UniProt P51686).
T1 sequence (P51686 whole entry): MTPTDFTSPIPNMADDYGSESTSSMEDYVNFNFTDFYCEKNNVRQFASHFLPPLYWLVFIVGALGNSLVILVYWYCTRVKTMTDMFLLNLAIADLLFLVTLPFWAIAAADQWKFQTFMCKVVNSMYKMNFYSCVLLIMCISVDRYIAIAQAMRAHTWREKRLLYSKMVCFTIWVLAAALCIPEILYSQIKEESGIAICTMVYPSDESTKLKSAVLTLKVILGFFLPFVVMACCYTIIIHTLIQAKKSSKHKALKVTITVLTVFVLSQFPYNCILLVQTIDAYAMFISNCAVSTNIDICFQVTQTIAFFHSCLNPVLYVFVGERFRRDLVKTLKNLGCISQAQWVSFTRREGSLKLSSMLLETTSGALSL
The assay is described as follows: FLIPR Assay: A calcium flux assay was used to determine the ability of the compounds to interfere with the binding between CCR9 and its chemokine ligand (TECK) in Chem1-hCCR9 overexpressing cells. hCCR9 overexpressing cells were seeded (25,000 cells/well) into black Poly-D-Lysine coated clear bottom 96-well plates (BD Biosciences, Cat #356640) and incubated overnight at 37° C./5% CO2 in a humidified incubator. Media was aspirated and cells washed twice with 100 μL assay buffer (1×HBSS, 20 mM HEPES) containing 2.5 mM Probenecid. A 0.3× Fluo-4 NW calcium dye was prepared in assay buffer containing 5 mM Probenecid and stored in the dark. Each well was loaded with 100 μL of 0.3× Fluo-4 NW calcium dye and incubated at 37° C./5% CO2 for 60 minutes and then at room temperature for 30 minutes. A half-log serially diluted concentration response curve was prepared at a 3× final assay concentration for each compound (10 μM-0.1 nM final assay concentration) and 50 μL of the compound then transferred to the cells (150 μL final volume) for 60 minutes prior to stimulation (30 minutes at 37° C./5% CO2 and 30 minutes at room temperature). TECK was diluted to 4× its EC80 in assay buffer (containing 0.1% [w/v] bovine serum albumin [BSA]) and 50 μL dispensed through the fluorometric imaging plate reader (FLIPR) instrument to stimulate the cells (200 μL final volume). […]. Format: cell-based. Background: Calcium flux is commonly read through the fluorescence of an indicator in the cells.

Regarding `CC(C)(C)c1ccc(S(=O)(=O)Nc2ccc(C#N)c3c2C(=O)N(Cc2ccc[n+]([O-])c2)C3=O)cc1`, the inhibition constant Ki turned out to be 84 nM.

As a reminder, the Ki is a dissociation constant, usually derived from enzyme kinetics or from competition with a known ligand.
